Entries after “also recorded” stand apart in the source; their conditions may differ.
Legend:
airways cell = experiment: Theophylline pretreatment before airway delivery of a composition comprising DPSO; type: in vivo; settings: oral 0.3 mg theophylline to mice about 30 min before composition comprising DPSO
Text: Finally, the invention relates to a cell which is transfected with a composition as previously defined, in particular a prokaryotic cell, or a yeast or eukaryotic cell, in particular an animal cell, in particular a mammalian cell, more especially a cancerous cell. According to a preferred embodiment of the invention, the said cell is an airways cell, more especially a tracheal or pulmonary cell, advantageously a cell of the respiratory epithelium. In the case of airway delivery, prior administration of bronchodilator compounds (for example, theophylline) could be advantageous.

pulmonary cells = experiment: Luciferase activity in lungs of mice after intratracheal injection of plasmid/polar compound compositions; type: in vivo; settings: B6/SJLF1 mice
Procedure: The chosen polynucleotide, i.e. the plasmid pTG11033 (FIG. 1), encompasses the gene encoding luciferase placed under the control of the CMV promoter, intron 1 of the HMG gene and the SV40 polyA termination signal. The plasmid DNA contained in 250 μl of a 1 mg/ml solution of purified plasmid (purified by centrifugation in a cesium chloride gradient) is precipitated with ethanol. After having been centrifuged, washed with 70% ethanol and dried, the nucleic acid pellet is taken up in a given volume of DESO or DPSO and of 20 mM Hepes buffer, pH 7.5, in order to give the following compositions as shown in Table I below: The 8-week-old female mice (B6/SJLF1, Iffa Credo) were anaesthetized by means of intraperitoneal injection (physiological saline, […] 1000, xylazine/ROMPUN). […] Each composition is injected into at least three different mice. The expression levels are compared with those obtained after injecting 50 μg of DNA in 50 μl of 20 mM Hepes, pH 7.5, without any addition of polar compound. A control in which the mice are not injected is also included in the protocol. The mice are sacrificed two days after the injections. The lungs and the trachea are treated independently. The tissues are frozen in liquid nitrogen and stored at -80° C. In order to measure the luciferase activity, the tissues are ground up mechanically using a pestle in a mortar which is placed on dry ice. 500 μl or 200 μl of a lysis buffer (Promega) are added to the tissue fragments obtained from the lungs or the trachea, respectively, and the solution is subjected to three steps of freezing/thawing. The cell debris is removed by centrifugation and the luciferase activity (in RLU/min, relative light unit per minute) is measured on 20 μl of supernatant, in accordance with the supplier's (Promega) instructions, by adding 100 μl of reagent and measuring the activity by means of luminescence. The luciferase activity which is measured is standardized in relation to the quantity of protein with the aid of a standard scale which is generated using commercially available luciferase (Promega). […]

plasmid DNA (pTG11033) = experiment: Plasmid DNA melting curves; type: physicochemical; settings: 50 μg/ml pTG11033 in 20 mM HEPES pH 7.5, 0-20% DPSO, 35-100° C., 260 nm; versus DNA alone
Procedure: Plasmid DNA melting curves were recorded on a thermostated UV/Visible CARY/VARIAN spectrophotometer (sofware version: 3.04) using 2 quartz cuvettes (L=1cm) with Teflon stopper.

| Absorbance change upon DNA melting (plasmid DNA (pTG11033)) | temperature at which absorbance change (DNA melting) occurs (plasmid DNA (pTG11033)) | SMILES | expression level compared with administration without pretreatment (airways cell) | measured level of expression of the luciferase-encoding gene on increasing the percentage of the compound (pulmonary cells; 50 μg DNA, FIG. 4) | expression of the luciferase gene in the pulmonary tissues (pulmonary cells; 50 μg DNA/50 μl, 15% (v/v) polar compound, sacrificed two days after injection, compared with polynucleotide alone) | transfection of the pulmonary cells (luciferase expression) (pulmonary cells; 50 μg pTG11033/50 μl, 10 or 15% polar compound, compared with polynucleotide on its own) |
| --- | --- | --- | --- | --- | --- | --- |
|  |  | Cn1c(=O)c2[nH]cnc2n(C)c1=O [theophylline] | slightly increase of the expression level |  |  |  |
| lowered | higher temperature | CCC[S+]([O-])CCC [DPSO, di-n-propyl sulphoxide] |  | improve the measured level of expression | increases expression; also recorded: markedly improved | best results |
